Experiments:
[1] = tested on: HER2+ cell lines (N87 and SKBR3); experiment: In vitro efficacy with hydroxy-containing drugs (aromatic and aliphatic alcohols); type: cell-based; settings: unconjugated drug
From the text: The scope of the linker system of conjugates in accordance with embodiments of the invention has been evaluated with further phenol-(or aromatic alcohol-) containing drugs OTS-964, Ganetespib and Birabresib. OTS-964 is a potent TOPK inhibitor, Ganetespib is a potent […], and Birabresib is a potent bromodomain inhibitor. […] Potency of the free payloads (OTS-964, Ganetespib and Birabresib) in the respective cell lines is also shown.
The scope of the linker system described herein has been also evaluated with further aliphatic alcohol-containing drugs SNX-2112, Gemcitabine and Barasertib. SNX-2112 is a potent HSP90-inhibitor, Gemcitabine is a potent ribonucleotide reductase inhibitor, and Barasertib is a potent Aurora B kinase inhibitor. […] Potency of the free payloads (SNX-2112, Gemcitabine and Barasertib) in the respective cell lines is also shown.

[2] = tested on: Trop2-positive cell lines; experiment: In vitro cell viability (in vitro potency) of SN38 based ADCs; settings: various target-positive cell lines
Method: Antibody-drug conjugates (ADCs) comprising the anti-Trop2 antibody Sacituzumab, a phosphorus(V) moiety according to embodiments of the present invention, and SN38 as drug were tested in in vitro potency assays against various Trop2-positive cell lines. The corresponding ADCs with the non-targeted antibody Trastuzumab were used as isotype control. For direct comparison, the approved and marketed ADC Trodelvy comprising Sacituzumab, a CL2A linker and SN38 as drug was also tested. The corresponding ADC with Trastuzumab was used as isotype control.
Linkers have been conjugated to Sacituzumab (anti-Trop2) and Trastuzumab (anti Her2, isotype in this setting) and tested on a panel of 4 different cell lines. All cell lines were Trop+ and Her2−. Trastuzumab conjugates serve as isotype control in this setting. […] Sacituzumab-CL2A-SN38 is Trodelvy and has been purchased for the experiment.

Cc1sc2c(c1C)C(c1ccc(Cl)cc1)=N[C@@H](CC(=O)Nc1ccc(O)cc1)c1nnc(C)n1-2 [Birabresib]
activity of free payload [1]: lower activities of the unconjugated drugs

CC(C)c1cc(-c2n[nH]c(=O)n2-c2ccc3c(ccn3C)c2)c(O)cc1O [Ganetespib]
activity of free payload [1]: highest activity as free payload

Cc1cc(O)c(-c2ccc(C(C)CN(C)C)cc2)c2c1[nH]c(=O)c1sccc12 (stereo not shown) [OTS-964]
activity of free payload [1]: lower activities of the unconjugated drugs

Sacituzumab conjugated to O—P5(PEG12)-amidopentyl-Phosphoramidate-N-(4-Methylbenzyl)-O—SN38
in vitro potency, non-cleavable control vs cleavable conjugate [2]: not active in the in vitro cell viability assay

Source: patent publication US20240269313A1, “CONJUGATES COMPRISING A PHOSPHORUS(V) MOIETY AND A DRUG” (Tubulis GmbH, priority 2022, published 2024)
